According to ChEMBL document CHEMBL1158191, “Two new aromatic constitutents from the rootwood of Aeschynomene mimosifolia” (1996):
Values after ≈ are worked out from the molar mass of the structure shown. Active and inactive are the calls of the source. The rule behind the calls is not given here.

What was measured:
KB = test: Cytotoxicity against human KB cells; type: functional
BC1 = test: Cytotoxicity against human BC1 cells; type: functional, cell-based
Lu1 = test: Cytotoxicity against human Lu1 cells; type: functional, cell-based
LNCaP = test: Cytotoxicity against human LNCAP cells; type: functional, cell-based
U-373MG ATCC = test: Cytotoxicity against human U373 cells; type: functional, cell-based
ZR-75-1 = test: Cytotoxicity against human ZR-75-1 cells; type: functional, cell-based
[1] = Induction of DNA scission activity in at 25 ug/mL

Row | Activity [1] | SMILES | Activity (KB) | Activity (BC1) | Activity (Lu1) | Activity (LNCaP) | Activity (U-373MG ATCC) | Activity (ZR-75-1) | EC50 (KB; read-out: ED50 (the source's name)) [µg/mL]
1 | – | C=C[C@H](c1ccccc1)c1cc(OC)c(O)cc1OC | inactive | inactive | inactive | inactive | inactive | inactive | –
2 | inactive | CO[C@H]1CC(=O)C=CC[C@]1(O)/C=C\c1ccccc1 [MIMOSIFOLENONE] | – | – | – | – | – | – | 3.3 (≈ 12.8 µM)
